{"source": "patent US5770688A", "about": "“Method and composition for the treatment of mammalian HIV infection” (GSF-Forschungszentrum fur Umwelt und Gesundheit GmbH, priority 1989, dated 1998)", "key": {"[1]": {"assay": "in vitro persistence of melittin within cells"}, "[2]": {"tested_on": "KE37-1/111β (HIV-infected T-lymphoma cells)", "assay": "MTT test, growth of HIV infected T-lymphoma cells", "assay_type": "cell-based", "protocol": "(§1) The KE37-1 (uninfected) and KE37-1/111β (infected) cell lines discussed below are commercially available from the Dr. Robert Gallows Laboratory of the NIH in the United States of America and grown in a medium of RPMI 1640 (GIBCO) and further supplemented with 10% fetal calf serum which contained approximately 100 units of penicillin, 100 μg streptomycin, and approximately 0.25 μg fungizone (Amphotericin B) per milliliter. The human mesenchymal cell lines LC5 and LC5-HIV, discussed below, are deposited with the Collection De L'Institut Pasteur of Paris, France on Mar. 9, 1989 and given the accession numbers I-842 and I-843, respectively. The LC5 and LC5-HIV cell lines were grown in a medium of RPMI 1640 and supplemented with 10% fetal calf serum.\nReferring more particularly to FIGS. 1-4, melittin (Seq. ID NO:1) and its specified analogues were tested for their effect on HIV-infected T-lymphoma cells. In this regard the following cell lines were employed in the testing: KE37-1 (uninfected) and KE37-1/111S (infected with HTLV-111β). These infected cells were incubated for a period of seven days under test conditions at a temperature of 37° C. and in the presence of 5% CO2. A culture medium of RPMI 1640 (GIBCO) was employed and was further supplemented with 10% fetal calf serum which contained approximately 100 units of penicillin, 100μ of streptomycin, and approximately 0.25μ fungizone (Amphotericin B) per milliliter. This equals 1 milliliter of antibiotic-antimycotic solution (GIBCO Catalogue No. 043-05240 per 100 ml. of medium.) After a one week incubation period in the presence of various concentrations of the above-identified substances, which were added fresh daily to the medium, the following tests were carried out with the cultures. A first test was conducted for purposes of determining the relative cell concentration as a function of the number of HIV infected cells present by employing an MTT test. […] The optical density (OD) of the solution was determined at=600 nm. […]"}, "non-infected cells": {"tested_on": "non-infected cells", "assay": "MTT toxicity/killing of non-infected cells (Biomek 1000)", "assay_type": "cell-based", "protocol": "as §1, with “The LC5 and LC5-HIV cell lines were grown in a medium of RPMI 1640 and supplemented with 10% fetal calf serum.” left out\nIn the present series of experiments HIV release was tested by a fully automated laboratory robot system and which is manufactured by Beckman Instruments as the Biomek 1000. […] The number of living cells are quantified by MTT, that is by a metabolic (dehydrogenase) test. […] The toxic effect is detected at the time of the experiment and not in a separate control experiment. Furthermore, the supernatant, and which contains released virus cells from the period of time which elapsed from the last wash, and which may vary from 24 hours to 7 days, is collected from the culture, and an aliquot is saved for virus quantification by employing antigen or viral enzyme reverse transcriptase (RT). […]"}, "cell free HIV": {"tested_on": "cell free HIV", "assay": "influence of melittin on cell free HIV (P24 determination, infectivity)", "conditions": "incubation of cell free HIV"}, "P24": {"tested_on": "P24", "assay": "P24 production in melittin treated HIV infected cultures", "assay_type": "cell-based", "text": "This means, in essence, that the effect of melittin (Seq. ID NO:1) on the virus is to attack the virus before it is released from an infected cell although it is possible that a reduction in virus numbers may be possible during and immediately after the addition of melittin to a cell culture or otherwise. […] At this point in time, melittin is absent from the culture. […] This observation excludes any effect in the experiments to be explained by a direct effect of melittin on \"cell free\" virus, that is, virus released into the supernatant.\nThese characteristics appear to be due to the specific structure of the melittin amphiphilic helix. […] In this regard, treatment was at cultivation start, and measurement of infectivity was seven days post treatment. As was discussed earlier, maximum virus concentration in cultures of this type is not achieved for five days after cultivation. As should be understood and the conclusions which the inventors have drawn from same is that if the reduced viral infectivity seven days post treatment were only due to direct effects of melittin on the virus, then in that event, the melittin or an active fragment would have to be present as late as five days post treatment. […] Moreover, and if the reduction and supernatant infectivity was partly due to reduced virus production as opposed to incorrect virus assembly or destruction of newly synthesized virion, then, in that event, this should be reflected by reduced amounts of viral proteins within the cells and/or in their supernatants of the melittin treated cultures. To determine whether this hypothesis is correct the inventors chose the P24 marker as a marker for viral protein production. […] However, following fourteen hours of incubation with melittin, there is a marked reduction of P24 within the cells as well as in the supernatant (down to 60%)."}}}
{"substance": "Gly-Ile-Gly-Ala-Val-Leu-Lys-Val-Leu-Thr-Thr-Gly-Leu-Pro-Ala-Leu-Ile-Ser-Trp-Ile-Lys-Arg-Lys-Arg-Gln-Gln-Amide [melittin]", "values": [{"measurement": "time detectable in tact within the cells", "setting": "[1]", "value": "more than 48 hours"}, {"measurement": "level of growth of the cells", "setting": "[2]; 2.5 μg per ml", "value": "appears not yet influenced"}, {"measurement": "selective toxicity/growth inhibition of HIV infected cells, in words", "setting": "[2]; FIGS. 1-4", "value": "appears to inhibit the growth of HIV infected cells selectively"}, {"measurement": "concentration toxic to HIV infected cells", "setting": "[2]; KE37-1/111β, seven days incubation, 10080 min", "value": "above 5 μg per ml"}, {"measurement": "critical concentration at which all non-infected cells were killed", "setting": "non-infected cells", "value": 10, "unit": "μg per ml"}, {"measurement": "detection of the P24 antigen", "setting": "cell free HIV", "value": "does not impair the detection of the P24 antigen"}, {"measurement": "virus infectivity of cell free HIV", "setting": "cell free HIV", "value": "cause the virus infectivity to be reduced"}, {"measurement": "cellular vs supernatant P24 reduction", "setting": "P24", "value": "cellular P24 seems to be reduced sooner and more strongly than supernatant P24"}, {"measurement": "P24 within the cells as well as in the supernatant", "setting": "P24; fourteen hours of incubation, down to, 840 min", "value": 60, "unit": "%"}, {"measurement": "reduction of cellular and supernatant P24", "setting": "P24; three hours of incubation", "value": "only a slight reduction"}, {"measurement": "virus protein synthesis (P24 formation within the cell)", "setting": "P24; totally infected (clone) cultures", "value": "virus protein synthesis is reduced"}]}
